Experimental data as given in publication PMC4890260, “Engineering Bacillus licheniformis for the production of meso-2,3-butanediol” (Biotechnology for Biofuels, 2016).

Key:
[1] = target: T1, WX-02 GDH (Bacillus licheniformis, UniProt X5FDW5); test: NADH formation at […] nm; format: biochemical; details: 4 mM NAD+; 50 mM substrate; Z buffer pH 7.0; 37 °C; 1 mM MgSO4, 10 mM DTT
T1 construct: primers encode native N-term MSKSVK (MG added before) and C-term AESYHD
T1 sequence (X5FDW5 1-367): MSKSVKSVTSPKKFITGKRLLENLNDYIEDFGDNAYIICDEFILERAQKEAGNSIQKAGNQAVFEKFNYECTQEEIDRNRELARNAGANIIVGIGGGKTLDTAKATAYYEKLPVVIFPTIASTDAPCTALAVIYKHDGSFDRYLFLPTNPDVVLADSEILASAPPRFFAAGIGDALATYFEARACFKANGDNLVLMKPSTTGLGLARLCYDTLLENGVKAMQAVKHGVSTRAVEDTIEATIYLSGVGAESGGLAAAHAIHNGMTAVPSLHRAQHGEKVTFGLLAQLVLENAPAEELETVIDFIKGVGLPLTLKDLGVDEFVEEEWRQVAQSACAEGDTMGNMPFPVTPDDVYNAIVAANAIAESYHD

[2] = target: T1, WX-02 GDH; test: NADH oxidation at […] nm; format: biochemical; details: 0.2 mM NADH; 50 mM substrate; Z buffer pH 7.0; 37 °C; 1 mM MgSO4, 10 mM DTT

Row | Compound | NADH formation at 340 nm [1] | NADH oxidation at 340 nm [2]
1 | C[C@@H](O)[C@@H](C)O [D-2,3-BD] | this enzyme exhibited the highest activity towards D-2,3-BD among various substrates | 
2 | CC(=O)[C@@H](C)O [D-AC] |  | WX-02 GDH accepted D-AC, D-2,3-BD, meso-2,3-BD, and glycerol as substrates
